The text below walks through data of ChEMBL document CHEMBL1201862, “PubChem BioAssay data set” (2004).

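In this assay, cells in 96-well plates receive the compound at five concentrations for 48 hours. Endpoints are linearly interpolated between the surrounding concentrations. Here, GI50 denotes the concentration required for 50% inhibition of growth.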 The source made the active and inactive calls. Rule as the data show it: active = GI50 up to about 1.1 µM and inactive = higher.

Among the test systems are HCC 2998; CCRF-CEM; SNB-19; DU-145; SR; SK-MEL-5; SNB-75; EKVX; MCF7; HOP-92; NCI/ADR-RES; U-251; RPMI-8226; HCT-116; NCI-H23; MDA-MB-231; COLO 205; ACHN; HT-29; T47D.
Holding throughout (test): NCI tumour cell line growth inhibition, 48 h

For the compound `CC1(C)OC(CCC#N)CN1C(=O)OCc1ccccc1` (configuration not stated), the GI50 is > 100 µM (inactive) with HCC 2998; > 100 µM (inactive) with CCRF-CEM; 9.57 µM (inactive) with SNB-19; > 100 µM (inactive) with DU-145; > 100 µM (inactive) with SR; 68.4 µM (inactive) in the assay on SK-MEL-5. Besides, the GI50 in the assay with SNB-75 is 3.4 µM (inactive); with EKVX, > 100 µM (inactive); with MCF7, > 100 µM (inactive); with HOP-92, > 100 µM (inactive); in the assay with NCI/ADR-RES it was > 100 µM (inactive); in the assay on U-251, > 100 µM (inactive). Besides, the GI50 with RPMI-8226, in the assay on HCT-116, in the assay on NCI-H23, in the assay on MDA-MB-231, with COLO 205 and in the assay with ACHN was > 100 µM (inactive) each time.
Take `O=C(CC(C(=O)c1ccsc1)c1ccc2c(c1)OCO2)c1ccccc1` (configuration not stated): the GI50 with HCC 2998 is > 100 µM (inactive); in the assay on CCRF-CEM it was > 100 µM (inactive); in the assay with DU-145 it was > 100 µM (inactive); in the assay on HT-29, > 100 µM (inactive); in the assay on SR it was > 100 µM (inactive); in the assay on SK-MEL-5, 95.9 µM (inactive). In addition, the GI50 was > 100 µM (inactive) with SNB-75; > 100 µM (inactive) in the assay on EKVX; 88.3 µM (inactive) in the assay on MCF7; > 100 µM (inactive) in the assay with HOP-92; > 100 µM (inactive) in the assay on NCI/ADR-RES; 51.6 µM (inactive) in the assay with T47D. In addition, the GI50 in the assay with U-251 was > 100 µM (inactive); with RPMI-8226, > 100 µM (inactive); in the assay on HCT-116, > 100 µM (inactive); with NCI-H23, 0.209 µM (active); with COLO 205, > 100 µM (inactive); in the assay with ACHN it was > 100 µM (inactive).
Turning to `Cc1nnc(N/N=C(/C(=O)C(C#N)c2ccccc2)C(C#N)c2ccccc2)n1N` (configuration not stated), the GI50 in the assay on HCC 2998 is 4.85 µM (inactive); in the assay with CCRF-CEM it was 2.12 µM (inactive); with SNB-19 it was 56 µM (inactive); in the assay with HT-29 it was 6.4 µM (inactive); with SR, 32.3 µM (inactive); with SK-MEL-5, 18.3 µM (inactive). For the same compound, the GI50 with SNB-75 was 16.4 µM (inactive); with EKVX, 51.9 µM (inactive); in the assay on HOP-92 it was > 100 µM (inactive); in the assay with U-251, 32.6 µM (inactive); with RPMI-8226, 19.6 µM (inactive); in the assay with HCT-116 it was 2.46 µM (inactive). Moreover, the GI50 with NCI-H23 was 12.9 µM (inactive); in the assay on COLO 205, 4.76 µM (inactive); in the assay on ACHN it was 22.3 µM (inactive).
`CC(=O)O[C@H]1C(=O)[C@@]2(C)[C@H]([C@H](OC(=O)c3ccco3)[C@]3(O)C[C@H](OC(=O)[C@H](O)[C@@H](NC(=O)c4ccccc4)c4ccccc4)C(C)=C1C3(C)C)[C@]1(OC(C)=O)CO[C@@H]1C[C@@H]2O`: the GI50 with HCC 2998 is 0.296 µM (active); with CCRF-CEM, 0.05 µM (active); with SNB-19 it was 0.344 µM (active); in the assay on DU-145, 0.676 µM (active); in the assay with HT-29 it was 0.0393 µM (active); with SR, 0.0809 µM (active). Besides, the GI50 is 0.116 µM (active) in the assay with SK-MEL-5; 0.134 µM (active) with SNB-75; > 8.79 µM (inactive) with EKVX; 0.034 µM (active) in the assay with MCF7; > 25 µM (inactive) in the assay on NCI/ADR-RES; 0.125 µM (active) in the assay with U-251. In addition, the GI50 is 0.0189 µM (active) in the assay on RPMI-8226; 0.059 µM (active) in the assay with HCT-116; 0.412 µM (active) in the assay on NCI-H23; 4.58 µM (inactive) in the assay on MDA-MB-231; 0.114 µM (active) in the assay on COLO 205; 7.98 µM (inactive) in the assay with ACHN.
As to `COc1ccc(-c2c(C#N)c(S)n(NS(=O)(=O)c3ccc(C)cc3)c(=O)c2C#N)cc1`, the GI50 with HCC 2998 was 30.3 µM (inactive); with CCRF-CEM it was 4.06 µM (inactive); in the assay on SNB-19, 35.8 µM (inactive); in the assay with HT-29 it was 31.6 µM (inactive); in the assay with SK-MEL-5, 13.8 µM (inactive); in the assay on SNB-75, 30.5 µM (inactive). For the same compound, the GI50 in the assay with EKVX was 25.8 µM (inactive); in the assay on MCF7, 29.4 µM (inactive); in the assay on HOP-92, 33.1 µM (inactive); in the assay with NCI/ADR-RES, 20.3 µM (inactive); in the assay with U-251 it was 29.4 µM (inactive); with RPMI-8226 it was 3.42 µM (inactive). Moreover, the GI50 is 14.4 µM (inactive) in the assay with HCT-116, 17.8 µM (inactive) in the assay with MDA-MB-231, 18.2 µM (inactive) in the assay on COLO 205 and 16.4 µM (inactive) in the assay with ACHN.
Regarding `Cc1cc2nc3n(c2cc1C)C(c1c(F)cccc1F)SC3` (configuration not stated), the GI50 with HCC 2998 is 21.2 µM (inactive); in the assay with CCRF-CEM, 19.4 µM (inactive); with SNB-19 it was 18.3 µM (inactive); in the assay with HT-29, 18.5 µM (inactive); in the assay with SR, 12.7 µM (inactive); in the assay on SK-MEL-5 it was 11 µM (inactive). Also, the GI50 with SNB-75 was 11.6 µM (inactive); in the assay with EKVX, 34.8 µM (inactive); in the assay on MCF7 it was 17.5 µM (inactive); in the assay on NCI/ADR-RES, 16.8 µM (inactive); in the assay with T47D, 57.8 µM (inactive); in the assay on U-251, 16.1 µM (inactive). Further, the GI50 with RPMI-8226 is 25.4 µM (inactive); in the assay on HCT-116, 14.1 µM (inactive); with NCI-H23, 16.5 µM (inactive); in the assay with MDA-MB-231 it was 17.9 µM (inactive); with COLO 205 it was 20.7 µM (inactive); in the assay on ACHN it was 17.4 µM (inactive).
In the case of `N#Cc1[nH]c(=S)[nH]c1N`, the GI50 in the assay with HCC 2998, in the assay with CCRF-CEM, in the assay on SNB-19, with DU-145, in the assay with HT-29 and in the assay on SR was > 100 µM (inactive) each time. In addition, the GI50 in the assay on SK-MEL-5, in the assay on SNB-75, in the assay on EKVX, in the assay with MCF7, in the assay on HOP-92 and in the assay on NCI/ADR-RES was > 100 µM (inactive) in each case. The GI50 in the assay with U-251, in the assay with HCT-116, in the assay with NCI-H23, in the assay on COLO 205 and in the assay on ACHN was > 100 µM (inactive) each time.
Turning to `COC(=O)c1ccc(Cc2cc(Cc3ccc(C(=O)OC)cc3)cc(Cc3ccc(C(=O)OC)cc3)c2)cc1`, the GI50 in the assay on HCC 2998, in the assay on SNB-19, in the assay with DU-145, in the assay with HT-29, with SR and in the assay on SNB-75 was > 25 µM (inactive) in each case. In addition, the GI50 with EKVX, in the assay with MCF7, in the assay on HOP-92, in the assay on NCI/ADR-RES, with U-251 and in the assay on RPMI-8226 was > 25 µM (inactive) in each case. Also, the GI50 in the assay with HCT-116, in the assay with MDA-MB-231 and in the assay on ACHN was > 25 µM (inactive) throughout.
Regarding `c1ccc(C2CC(N3CCOCC3)=Nc3ccccc3N2)cc1` (configuration not stated), the GI50 in the assay with CCRF-CEM, with SNB-19, in the assay on DU-145, in the assay on HT-29, in the assay with SK-MEL-5 and in the assay with EKVX was > 100 µM (inactive) each time. Moreover, the GI50 with NCI/ADR-RES is > 100 µM (inactive); in the assay with U-251, > 100 µM (inactive); with RPMI-8226, 43.9 µM (inactive); with HCT-116, > 100 µM (inactive); in the assay on NCI-H23 it was > 100 µM (inactive); in the assay on MDA-MB-231 it was > 100 µM (inactive). The GI50 in the assay on COLO 205 and with ACHN was > 100 µM (inactive) in each case.
`COc1ccc2nc3c(c(NCCCN(C)C)c2c1)CCCC3`: the GI50 in the assay on HCC 2998 was 8.81 µM (inactive); in the assay with CCRF-CEM it was 4.83 µM (inactive); in the assay with SNB-19, 21.6 µM (inactive); in the assay on HT-29, 5.41 µM (inactive); in the assay on SR, 2.42 µM (inactive); in the assay with SK-MEL-5, 15.8 µM (inactive). Besides, the GI50 in the assay with SNB-75 is 13.2 µM (inactive); in the assay on EKVX, 17.4 µM (inactive); with HOP-92 it was 5.28 µM (inactive); in the assay with U-251, 15.5 µM (inactive); in the assay with RPMI-8226, 6.25 µM (inactive); with HCT-116, 4.74 µM (inactive). Also, the GI50 in the assay on NCI-H23 is 17.1 µM (inactive); with COLO 205, 10.8 µM (inactive); in the assay on ACHN, 20.4 µM (inactive).
Take `CCCCCCCCCCCCCCCC(=O)OCCOCCOCCOCCOCCOC(=O)CCCCCCCCCCCCCCC`: the GI50 in the assay on HCC 2998, with CCRF-CEM, in the assay with SNB-19, in the assay with HT-29, in the assay with SR and in the assay with SK-MEL-5 was > 100 µM (inactive) each time. For the same compound, the GI50 was > 10 µM (inactive) in the assay with SNB-75; > 100 µM (inactive) in the assay on EKVX; > 100 µM (inactive) with HOP-92; > 100 µM (inactive) with U-251; > 100 µM (inactive) in the assay on RPMI-8226; > 100 µM (inactive) with HCT-116. Besides, the GI50 in the assay on NCI-H23, in the assay on COLO 205 and in the assay with ACHN was > 100 µM (inactive) each time.
`CC(=O)OCCOCn1c2c(c(=O)[nH]c1=O)CCC2`: the GI50 was > 100 µM (inactive) in the assay on HCC 2998; > 100 µM (inactive) in the assay with CCRF-CEM; 8.53 µM (inactive) with SNB-19; > 100 µM (inactive) in the assay on DU-145; > 100 µM (inactive) in the assay with HT-29; > 100 µM (inactive) in the assay with SR. The GI50 in the assay with SK-MEL-5, in the assay on SNB-75, in the assay on EKVX, in the assay with MCF7, with HOP-92 and in the assay on U-251 was > 100 µM (inactive) each time. Further, the GI50 in the assay with RPMI-8226, in the assay on HCT-116, in the assay on NCI-H23, in the assay on MDA-MB-231, in the assay with COLO 205 and in the assay with ACHN was > 100 µM (inactive) each time.
